# Assay: Temperature range of liquid crystal (MR)
# Type: physicochemical
# Details: Table 1
row,SMILES,Temperature (MR) Range of liquid crystal
1,"CCCCCCCCOc1ccc(C(=O)Oc2ccc(C(F)(F)F)cc2)cc1 [Example 10, p'-trifluoromethylphenyl p-n-octyloxybenzoate]",62.5-72.5 °C
2,N#Cc1ccc(OC(=O)c2ccc(C(F)(F)C(F)(F)C(F)(F)C(F)(F)C(F)(F)C(F)(F)C(F)(F)C(F)(F)F)cc2)cc1 [Example 16],118-145 °C
3,"CCCCCCCOc1ccc(C(=O)Oc2ccc(C(F)(F)F)cc2)cc1 [Example 9, p'-trifluoromethylphenyl p-n-heptyloxybenzoate]",62.9-74.3 °C
4,N#Cc1ccc(OC(=O)c2ccc(C(F)(F)C(F)(F)C(F)(F)C(F)(F)C(F)(C(F)(F)F)C(F)(F)F)cc2)cc1 [Example 13],109.6-121.3 °C
5,"N#Cc1ccc(OC(=O)c2ccc(C(F)(F)C(F)(F)C(F)(C(F)(F)F)C(F)(F)F)cc2)cc1 [Example 12, p'-Cyanophenyl p-(3-trifluoromethylperfluorobutyl)benzoate]",90.0-98.5 °C
6,O=C(Oc1ccc([N+](=O)[O-])cc1)c1ccc(C(F)(F)C(F)(F)C(F)(C(F)(F)F)C(F)(F)F)cc1 [Example 20],68.6-79.2 °C
7,"CCCCCCOc1ccc(C(=O)Oc2ccc(C(F)(F)F)cc2)cc1 [Example 8, p'-trifluoromethylphenyl p-n-hexyloxybenzoate]",74.7-76.5 °C
8,N#Cc1ccc(OC(=O)c2ccc(C(F)(F)C(F)(F)C(F)(F)C(F)(F)C(F)(F)C(F)(F)C(F)(C(F)(F)F)C(F)(F)F)cc2)cc1 [Example 14],130.7-140.7 °C
9,N#Cc1ccc(OC(=O)c2ccc(C(F)(F)C(F)(F)C(F)(F)C(F)(F)C(F)(F)C(F)(F)F)cc2)cc1 [Example 15],99.8-123.3 °C

# Same assay, conditions: Table 1; monotropic
row,SMILES,Temperature (MR) Range of liquid crystal
1,O=C(Oc1ccc(C(F)(F)F)cc1)c1ccc(C(F)(F)C(F)(F)C(F)(C(F)(F)F)C(F)(F)F)cc1 [Example 19],67.5-68.7 °C
2,"CCCCc1ccc(C(=O)Oc2ccc(C(F)(F)F)cc2)cc1 [Example 1, p'-trifluoromethylphenyl p-n-butylbenzoate]",67.8 °C
3,CCCCOc1ccc(C(=O)Oc2ccc(C(F)(F)F)cc2)cc1 [C4 H9 O / CF3],93.4 °C
4,"CCCCCc1ccc(C(=O)Oc2ccc(C(F)(F)F)cc2)cc1 [Example 2, p'-trifluoromethylphenyl p-n-pentylbenzoate]",66.8 °C
5,Cc1ccc(OC(=O)c2ccc(C(F)(F)C(F)(F)C(F)(F)C(F)(F)C(F)(F)C(F)(F)C(F)(F)C(F)(F)F)cc2)cc1 [Example 17],111-112 °C
6,"CCCCCCCc1ccc(C(=O)Oc2ccc(C(F)(F)F)cc2)cc1 [Example 4, p'-trifluoromethylphenyl p-n-heptylbenzoate]",61.0 °C
7,CCCCCc1ccc(OC(=O)c2ccc(C(F)(F)C(F)(F)C(F)(C(F)(F)F)C(F)(F)F)cc2)cc1 [Example 18],57-58 °C
8,"CCCCCCc1ccc(C(=O)Oc2ccc(C(F)(F)F)cc2)cc1 [Example 3, p'-trifluoromethylphenyl p-n-hexylbenzoate]",58.8 °C
9,"CCCCCCCCc1ccc(C(=O)Oc2ccc(C(F)(F)F)cc2)cc1 [Example 5, p'-trifluoromethylphenyl p-n-octylbenzoate]",58.5 °C
10,"CCCCCOc1ccc(C(=O)Oc2ccc(C(F)(F)F)cc2)cc1 [Example 7, p'-trifluoromethylphenyl p-n-pentyloxybenzoate]",78.5 °C

# — patent US4481149A, “Fluorine-containing phenyl benzoate compounds, and their production and use” (Daikin Kogyo Co., Ltd., priority 1978, dated 1984)
